Results published in patent publication US20250066358A1, “Inhibitors of Menin-MLL Interaction” (Bala Therapeutics, Inc., priority 2021, published 2025).

What was measured:
[1] = tested on: MOLM-13; assay: MOLM-13 Cellular Growth Inhibition Assay (CellTiter-Glo); type: cell-based; conditions: Homo sapiens, 168 h, MOLM-13 cells, 7 days of incubation
Method: (§1) HEK293 (Institute of Cytology Russian Academy of Science), MV4-11 (ATCC, CRL-9591), MOLM-13 (AcceGen, ABC-TC517S) were seeded at a density of 500 cells per well (HEK293) and 2000 cells per well (MV4-11, MOLM-13) in a 384-well clear bottom plate (Greiner Cat #781090) in 45 μl total volume of DMEM (PanEco, Cat #C420, Russia) or RPMI (PanEco, Cat #C330, Russia) with 10% FBS(HyClone Cat #SV30160.03). HEK293 were allowed to adhere overnight at 37° C., 5% CO2. 500× compounds solutions in DMSO (Sigma Cat #D2650) were prepared into Cmpnds plate (Diamond Well Plate, Axigen, Cat #P-384-120 SQ-C—S) and DMSO only control was included. 1 μl of 500× compounds (Cmpnds plate) was added to 49 μl of culture medium into Dilution plate (Diamond Well Plate, Axigen, Cat #P-384-120 SQ-C—S), mixed and then 5 μl of 10× compounds solutions were transferred to cells followed by centrifugation at 100 g for 1 min. Final DMSO concentration was 0.2%. After 3 days of incubation, 10 μl of 1× compounds were added to cells. After 7 days of incubation, 12 μl of CellTiter-Glo (Promega, CAT #G7572) were added to the cells, plate was centrifuged at 100 g for 1 min and luminescence signal was measured using Microplate Reader (CLARIOStar).

[2] = target: T1, recombinant MEN1 protein and fluorescein-labeled MLL4-43 peptide (Homo sapiens, UniProt O00255); assay: Primary fluorescence polarization assay of MEN1 / MLL4-43 interaction inhibition; type: binding; conditions: MEN1 10 nM, MLL4-43 0.5 nM, 1 hour at room temperature
T1 construct: purchased Creativebiomart MEN1-35H
T1 sequence (O00255 1-610): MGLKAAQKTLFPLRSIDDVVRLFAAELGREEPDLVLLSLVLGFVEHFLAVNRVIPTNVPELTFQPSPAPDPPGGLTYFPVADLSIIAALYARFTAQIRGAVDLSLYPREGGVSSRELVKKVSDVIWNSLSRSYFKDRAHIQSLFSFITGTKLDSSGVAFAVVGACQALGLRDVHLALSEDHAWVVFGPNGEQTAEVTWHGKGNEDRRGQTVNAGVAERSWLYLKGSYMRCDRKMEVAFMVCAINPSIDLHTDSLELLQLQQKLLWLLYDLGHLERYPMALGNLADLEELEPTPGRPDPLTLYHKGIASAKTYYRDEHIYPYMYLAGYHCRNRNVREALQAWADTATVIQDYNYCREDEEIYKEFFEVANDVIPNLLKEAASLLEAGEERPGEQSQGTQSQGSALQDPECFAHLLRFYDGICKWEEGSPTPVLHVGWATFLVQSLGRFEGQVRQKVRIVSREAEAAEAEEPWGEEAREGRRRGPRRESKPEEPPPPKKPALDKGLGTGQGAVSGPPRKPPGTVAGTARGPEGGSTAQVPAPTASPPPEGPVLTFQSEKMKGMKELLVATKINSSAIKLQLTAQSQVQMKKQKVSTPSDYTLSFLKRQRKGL
Method: Compound activity was determined using recombinant MEN1 protein (Creativebiomart, Cat #MEN1-35H) and a custom fluorescein-labeled MLL4-43 peptide (Eton Bioscience Inc.). Interaction between MEN1 and MLL4-43 in the presence of compounds was determined by fluorescence polarization assay using a Microplate Reader ClarioStar Plus. The reaction was carried out in assay buffer (50 mM TRIS-HCl PH 7.4-7.6, 50 mM NaCl, 1 mM DTT, 0.1 mg/ml BSA). The compounds were dispensed on a 384 well Diamond Well Plate (Axigen, Cat #P-384-120 SQ-C—S) using the Biomek FX liquid handling system at 100× solutions of compounds in DMSO. 2× MEN1 mix (final concentration of MEN1 10 nM) was prepared in Assay buffer and 10 μl of mixture per well was added into 384w white Reaction plate with NBS(Corning, Cat #4513). 10 μl of Assay buffer w/o MENI was used for negative control. Plates were centrifuged for 1 min at 100 g. Next step the Compounds were added to Reaction plate using Biomek station via following steps: 3 μl of 100× compounds (in DMSO) were mixed thoroughly with 27 μl Assay Buffer, then 2 μl of this mixture was added to Reaction plate with 10 μl of MENI mix. Plates were centrifuged for 1 min at 100 g and incubated for 20 min at room temperature. Next 8 μL of MLL4-43 peptide per well was added to final concentration of MLL 0.5 nM. Plates were incubated for 1 hour at room temperature. Then fluorescence polarization was measured using Microplate Reader.

[3] = tested on: MV4-11; assay: MV4-11 Cellular Growth Inhibition Assay (CellTiter-Glo); type: cell-based; conditions: Homo sapiens, 168 h, MV4-11 cells, 7 days of incubation
Method: as §1

[4] = HEK293 Cellular Growth Inhibition Assay (CellTiter-Glo); type: cell-based; conditions: human, HEK293 cells, 7 days of incubation
Method: as §1

SMILES	EC50 [2] [µM]	CC50 [1] [µM]	CC50 [3] [µM]	CC50 at 7 days [4] [µM]
CCS(=O)(=O)N1Cc2ccc(CN3CCC4(CC3)CN(c3ncnc5ccc(CC(F)(F)F)cc35)C4)cc2C1 [Compound 94, 4-(7-((2-(ethylsulfonyl)isoindolin-5-yl)methyl)-2,7-diazaspiro[3.5]nonan-2-yl)-6-(2,2,2-trifluoroethyl)quinazoline]	0.075 to 0.5	5 to 10	2.5 to 5	5 to 15
CCS(=O)(=O)Nc1ccc(CN2CCC3(CC2)CN(c2ncnc4ccc(CCc5ccccc5)cc24)C3)cc1 [Compound 52, N-(4-((2-(6-phenethylquinazolin-4-yl)-2,7-diazaspiro[3.5]nonan-7-yl)methyl)phenyl)ethanesulfonamide]	0.5 to 1	1 to 5	1 to 2.5	5 to 15
O=C1COc2cc(CN3CCC4(CC3)CN(c3ncnc5ccc(CC(F)(F)F)cc35)C4)ccc2N1 [Compound 75, 7-((2-(6-(2,2,2-trifluoroethyl)quinazolin-4-yl)-2,7-diazaspiro[3.5]nonan-7-yl)methyl)-2H-benzo[b][1,4]oxazin-3(4H)-one]	0.075 to 0.5	1 to 5	2.5 to 5	15 to 30
CCS(=O)(=O)N[C@H]1CC[C@H](CN2CCC(Nc3ncnc4ccc(CC(F)(F)F)cc34)C2)CC1 (mixture of isomers) [Compound 71, N-((1R,4R)-4-(((RS)-3-((6-(2,2,2-trifluoroethyl)quinazolin-4-yl)amino)pyrrolidin-1-yl)methyl)cyclohexyl)ethanesulfonamide]	> 5	> 20	> 10	> 50

Further lines, with some results ahead:

EC50 [2] [µM]	SMILES	CC50 [1] [µM]	CC50 [3] [µM]	CC50 at 7 days [4] [µM]
0.075 to 0.5	CCS(=O)(=O)N[C@H]1CC[C@H](CN2CCC3(CC2)CN(c2ncnc4ncc(CC(F)(F)F)cc24)C3)CC1 [Compound 65, N-(1R,4R)-[4-[[2-[6-(2,2,2-trifluoroethyl)pyrido[2,3-d]pyrimidin-4-yl]-2,7-diazaspiro[3.5]nonan-7-yl]methyl]cyclohexyl]ethanesulfonamide]	1 to 5	1 to 2.5	> 50
0.075 to 0.5	CCS(=O)(=O)N[C@H]1CC[C@H](CN2CCC3(CC2)CN(c2ncnc4ccc(CC(C)c5ccccc5)cc24)C3)CC1 (mixture of isomers) [Compound 59, N-((1R,4R)-4-((2-(6-((RS)-2-phenylpropyl)quinazolin-4-yl)-2,7-diazaspiro[3.5]nonan-7-yl)methyl)cyclohexyl)ethanesulfonamide]	≤ 1	≤ 1	≤ 5
1 to 5	CCS(=O)(=O)Nc1ccc(CN2CC3(CCN(c4ncnc5ccc(CC(F)(F)F)cc45)CC3)C2)cc1 [Compound 43, N-(4-((7-(6-(2,2,2-trifluoroethyl)quinazolin-4-yl)-2,7-diazaspiro[3.5]nonan-2-yl)methyl)phenyl)ethanesulfonamide]	5 to 10	5 to 10	15 to 30
1 to 5	CCS(=O)(=O)NC12CC(CN3CCC4(CC3)CN(c3ncnc5ccc(CC(F)(F)F)cc35)C4)(C1)C2 [Compound 74, N-(3-((2-(6-(2,2,2-trifluoroethyl)quinazolin-4-yl)-2,7-diazaspiro[3.5]nonan-7-yl)methyl)bicyclo[1.1.1]pentan-1-yl)ethanesulfonamide]	10 to 20	> 10	30 to 50
